Values of other authors as cited in publication PMC7956819, “Peptides from the Intestinal Tract of Breast Milk-Fed Infants Have Antimicrobial and Bifidogenic Activity” (International Journal of Molecular Sciences, 2021).
“Also recorded” adds a separate entry of the source.

Conditions: function listed in the MBPDB for the identical sequence; not tested here; cited from earlier work
Excerpt: page 3: Ta ble S1. List of known bioactive peptides in the infant intestinal samples.

AASDISLLDAQSAPLR
Function (known bioactive peptides in the infant intestinal samples): Antimicrobial

ALKALPMHIR
Function (known bioactive peptides in the infant intestinal samples): Cell-proliferative

ALNEINQFYQK
Function (known bioactive peptides in the infant intestinal samples): ACE-inhibitory

ALPMHIR
Function (known bioactive peptides in the infant intestinal samples): ACE-inhibitory; also recorded: Cell-proliferative

AMKPWIQPK
Function (known bioactive peptides in the infant intestinal samples): ACE-inhib itory

DAQSAPLRVY
Function (known bioactive peptides in the infant intestinal samples): ACE-inhibitory

DKIYPSFQPQPLIYP
Function (known bioactive peptides in the infant intestinal samples): ACE-inhibitory

ENLHLPLP
Function (known bioactive peptides in the infant intestinal samples): ACE-inhibitory

ENLHLPLPLL
Function (known bioactive peptides in the infant intestinal samples): ACE-inhibitory

EPVLGPVRGPFP
Function (known bioactive peptides in the infant intestinal samples): ACE-inhibitory

FALPQYLK
Function (known bioactive peptides in the infant intestinal samples): ACE-inhibitory; also recorded: Antioxidant

FFVAPFPEVFGK
Function (known bioactive peptides in the infant intestinal samples): ACE-inhib itory

FPEVFGK
Function (known bioactive peptides in the infant intestinal samples): ACE-inhib itory

FQPQPLIYP
Function (known bioactive peptides in the infant intestinal samples): ACE-inhibitory

FSDKIAK
Function (known bioactive peptides in the infant intestinal samples): ACE-inhibitory; also recorded: Antimicrobial

FVAPFPEVFG
Function (known bioactive peptides in the infant intestinal samples): ACE-inhib itory

GLDIQKVAGT
Function (known bioactive peptides in the infant intestinal samples): Antimicrobial

HPHPHLSF
Function (known bioactive peptides in the infant intestinal samples): ACE-inhibitory

IGSENSEKTTMP
Function (known bioactive peptides in the infant intestinal samples): ACE-inhib itory

IIAEKTKIPAVF
Function (known bioactive peptides in the infant intestinal samples): Antimicrobial

IKHQGLPQEV
Function (known bioactive peptides in the infant intestinal samples): Antimicrobial

INNQFLPYPY
Function (known bioactive peptides in the infant intestinal samples): DPP-I V-inhibitory

IQKVAGTW
Function (known bioactive peptides in the infant intestinal samples): ACE-inhibitory; also recorded: DPP-IV-inhibitory

IQPKTKVIPYVR
Function (known bioactive peptides in the infant intestinal samples): Antimicrobial

IYPSFQPQPLIYP
Function (known bioactive peptides in the infant intestinal samples): ACE-inhibitory

LDIQKVAGTW
Function (known bioactive peptides in the infant intestinal samples): ACE-inhibitory

LENLHLPLP
Function (known bioactive peptides in the infant intestinal samples): ACE-inhibitory

LIVTQTMK
Function (known bioactive peptides in the infant intestinal samples): Cytotoxic

LKALPMH
Function (known bioactive peptides in the infant intestinal samples): ACE-inhibitory; also recorded: DPP-IV-inhibitory

LKPTPEGDL
Function (known bioactive peptides in the infant intestinal samples): DPP-IV-inhibitory

LKPTPEGDLE
Function (known bioactive peptides in the infant intestinal samples): DPP-IV-inhibitory

LLNQELLLNPTHQIYPV
Function (known bioactive peptides in the infant intestinal samples): Antimicrobial

LLYQEPVLGPVRGPFPIIV
Function (known bioactive peptides in the infant intestinal samples): ACE-inhibitory

LPQNIPPLT
Function (known bioactive peptides in the infant intestinal samples): DPP-IV-inhibitory

LRLKKYKVPQL
Function (known bioactive peptides in the infant intestinal samples): Antimicrobial

LTDLENLHLP
Function (known bioactive peptides in the infant intestinal samples): ACE-inhibitory

LVYPFPGPI
Function (known bioactive peptides in the infant intestinal samples): ACE-inhibitory

LYQEPVLGPVRGPFPIIV
Function (known bioactive peptides in the infant intestinal samples): Immunomodulatory

MAIPPKKNQDKTEIPTINT
Function (known bioactive peptides in the infant intestinal samples): Antimicrobial

MPFPKYPVEP
Function (known bioactive peptides in the infant intestinal samples): ACE-inhibitory

NLHLPLP
Function (known bioactive peptides in the infant intestinal samples): ACE-inhibitory

NLHLPLPLL
Function (known bioactive peptides in the infant intestinal samples): ACE-inhibitory

PVVVPPFLQPE
Function (known bioactive peptides in the infant intestinal samples): Antimicrobial

PYVRYL
Function (known bioactive peptides in the infant intestinal samples): ACE-inhibitory; also recorded: Antimicrobial; also recorded: Antioxidant

QELLLNPTHQIYPVTQPLAPVHNPISV
Function (known bioactive peptides in the infant intestinal samples): Antimicrobial

QEPVLGPVRGPFPIIV
Function (known bioactive peptides in the infant intestinal samples): ACE-inhibitory

QVVPYPQ
Function (known bioactive peptides in the infant intestinal samples): Antioxidant

RELEELNVPGEIVESLSSSEESITR
Function (known bioactive peptides in the infant intestinal samples): Caseinophosphopeptide; also recorded: Immunomodulatory

RETIESLSSSEESITEYK
Function (known bioactive peptides in the infant intestinal samples): Cell-proliferative

SDIPNPIGSENSEK
Function (known bioactive peptides in the infant intestinal samples): Antimicrobial

SPTIPFFDPQIPK
Function (known bioactive peptides in the infant intestinal samples): Cell-proliferative

TEDELQDKIHPF
Function (known bioactive peptides in the infant intestinal samples): Antimicrobial

TKKTKLTEEEKNRL
Function (known bioactive peptides in the infant intestinal samples): Antimicrobial

TKVIPYVRYL
Function (known bioactive peptides in the infant intestinal samples): Antimicrobial

TPEVDDEALEK
Function (known bioactive peptides in the infant intestinal samples): Antimicrobial; also recorded: DPP-IV-inhibitory

TVYTKGRVMP
Function (known bioactive peptides in the infant intestinal samples): ACE-inhibitory

VENLHLPLPLL
Function (known bioactive peptides in the infant intestinal samples): ACE-inhibitory

VKEAMAPK
Function (known bioactive peptides in the infant intestinal samples): Antimicrobial; also recorded: Antioxidant

VLGPVRGPFP
Function (known bioactive peptides in the infant intestinal samples): ACE-inhibitory

VLPVPQKAVPYPQR
Function (known bioactive peptides in the infant intestinal samples): Antimicrobial

VLVLDTDYK
Function (known bioactive peptides in the infant intestinal samples): Antimicrobial; also recorded: DPP-IV-inhibitory

VYPFPGPI
Function (known bioactive peptides in the infant intestinal samples): PEP-inhibitory

VYPFPGPIPN
Function (known bioactive peptides in the infant intestinal samples): ACE-inhibitory; also recorded: Antioxidant

VYVEELKPTPEGDLEILLQK
Function (known bioactive peptides in the infant intestinal samples): Hypocholesterolemic

WSVPQPK
Function (known bioactive peptides in the infant intestinal samples): ACE-inhibitory; also recorded: Antioxidant

YANPAVVRP
Function (known bioactive peptides in the infant intestinal samples): ACE-inhibitory

YLGYLEQLLR
Function (known bioactive peptides in the infant intestinal samples): Anxiolytic

YQEPVLGPVR
Function (known bioactive peptides in the infant intestinal samples): ACE-inhibitory; also recorded: Immunomodulatory

YQEPVLGPVRGPFPI
Function (known bioactive peptides in the infant intestinal samples): Antimicrobial

YQEPVLGPVRGPFPIIV
Function (known bioactive peptides in the infant intestinal samples): ACE-inhibitory; also recorded: Antimicrobial; also recorded: Antithrombin; also recorded: Immunomodulatory

YQKFPQY
Function (known bioactive peptides in the infant intestinal samples): ACE-inhibitory; also recorded: Antioxidant
